# Molecular target: Jack bean urease (Canavalia ensiformis, UniProt P07374)
# Test: In vitro urease inhibition assay
# Type: biochemical
# Experimental: The measurement of urease inhibitory activity was carried out according to the literature method. The assay mixture containing 75 μL of Jack bean urease and 75 μL of tested compounds with various concentrations (dissolved in DMSO) was pre-incubated for 15 min on a 96-well assay plate. Acetohydroxamic acid was used as a reference. Then 75 μL of phosphate buffer at pH 6.8 containing phenol red (0.18 mmol·L^−1) and urea (400 mmol·L^−1) were added and incubated at room temperature. The reaction time required for enough ammonium carbonate to form to raise the pH phosphate buffer from 6.8 to 7.7 was measured by a microplate reader (560 nm), with the end-point being determined by the color change of the phenol-red indicator.
# Chain of Jack bean urease (P07374 whole entry, looked up): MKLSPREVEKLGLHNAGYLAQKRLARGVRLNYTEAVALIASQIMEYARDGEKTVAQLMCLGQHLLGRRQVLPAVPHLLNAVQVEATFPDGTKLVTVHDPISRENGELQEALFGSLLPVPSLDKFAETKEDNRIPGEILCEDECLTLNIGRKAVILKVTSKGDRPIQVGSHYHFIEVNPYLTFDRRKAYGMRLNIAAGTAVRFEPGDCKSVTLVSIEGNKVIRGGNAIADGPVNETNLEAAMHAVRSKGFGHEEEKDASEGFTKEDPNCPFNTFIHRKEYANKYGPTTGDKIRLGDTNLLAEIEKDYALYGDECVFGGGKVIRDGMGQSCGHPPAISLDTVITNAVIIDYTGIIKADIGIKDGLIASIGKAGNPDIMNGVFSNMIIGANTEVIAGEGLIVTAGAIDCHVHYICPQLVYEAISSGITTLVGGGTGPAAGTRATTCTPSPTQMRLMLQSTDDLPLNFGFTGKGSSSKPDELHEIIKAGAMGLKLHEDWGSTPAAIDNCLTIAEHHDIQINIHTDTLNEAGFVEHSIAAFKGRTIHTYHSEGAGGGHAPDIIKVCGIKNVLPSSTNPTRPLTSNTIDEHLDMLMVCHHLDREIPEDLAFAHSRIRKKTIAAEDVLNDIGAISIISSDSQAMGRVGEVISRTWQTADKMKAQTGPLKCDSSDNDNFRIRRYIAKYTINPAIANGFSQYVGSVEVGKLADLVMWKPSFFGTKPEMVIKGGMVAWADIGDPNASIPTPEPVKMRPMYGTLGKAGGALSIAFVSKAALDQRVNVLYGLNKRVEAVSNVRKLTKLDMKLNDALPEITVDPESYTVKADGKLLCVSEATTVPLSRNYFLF
row,SMILES,IC50
1,"COc1cc(C=NNC(=O)c2ccc(C(C)(C)C)cc2)ccc1F [Compound 4, 4-(Tert-butyl)-N′-(4-fluoro-3-methoxybenzylidene)benzohydrazide]",88.8 ± 7.71 µM
2,"COc1cccc(/C=N/NC(=O)c2ccc(C(C)(C)C)cc2)c1O [Compound 5, 4-(t-But)-N′-(2-Hydroxy-3-methoxybenzylidene)benzohydrazide]",56.6 ± 3.18 µM
3,"CC(C)(C)c1ccc(C(=O)NN=Cc2c3ccccc3cc3ccccc23)cc1 [Compound 6, N′-(Anthracen-9-ylmethylene)-4-(tert-butyl)benzohydrazide]",13.3 ± 0.58 µM
4,"COc1ccc(Br)cc1C=NNC(=O)c1ccc(C(C)(C)C)cc1 [Compound 7, N′-(5-Bromo-2-methoxybenzylidene)-4-(t-But)benzohydrazide]",64.5 ± 3.97 µM
5,"CC(C)(C)c1ccc(C(=O)NN=Cc2ccc(O)c(O)c2)cc1 [Compound 8, N′-(3,4-Dihydroxybenzylidene)-4-tert-butylbenzohydrazide]",80 ± 7.43 µM
6,"COc1ccc(C=NNC(=O)c2ccc(C(C)(C)C)cc2)c(OC)c1OC [Compound 9, N′-(2,3,4-Trimethoxybenzylidene)-4-tert-butylbenzohydrazide]",63.5 ± 3.97 µM
7,"CC(C)(C)c1ccc(C(=O)NN=Cc2cc([N+](=O)[O-])ccc2Cl)cc1 [Compound 10, 4-(Tert-butyl)-N′-(2-chloro-5-nitrobenzylidene)benzohydrazide]",63.5 ± 3.97 µM
8,"CCOc1ccc(C=NNC(=O)c2ccc(C(C)(C)C)cc2)c(OC)c1 [Compound 11, 4-(Tert-butyl)-N′-(4-ethoxy-2-methoxybenzylidene)benzohydrazide]",63.5 ± 2.97 µM
9,"CC(C)(C)c1ccc(C(=O)NN=Cc2cccc(O)c2)cc1 [Compound 12, 4-(Tert-butyl)-N′-(3-hydroxybenzylidene)benzohydrazide]",39.6 ± 11.5 µM
10,"COc1cc(C=NNC(=O)c2ccc(C(C)(C)C)cc2)cc(OC)c1OC [Compound 13, 4-(Tert-butyl)-N′-(3,4,5-trimethoxybenzylidene)benzohydrazide]",80.9 ± 7.43 µM
11,"CN(C)c1ccc(C=NNC(=O)c2ccc(C(C)(C)C)cc2)cc1 [Compound 14, 4-(Tert-butyl)-N′-(4-(dimethylamino)benzylidene)benzohydrazide]",81.2 ± 7.4 µM
12,"CC(C)(C)c1ccc(C(=O)NN=Cc2ccc(Cl)cc2Cl)cc1 [Compound 15, 4-(Tert-butyl)-N′-(2,4-dichlorobenzylidene)benzohydrazide]",82.2 ± 7.43 µM
13,"CC(C)(C)c1ccc(C(=O)NN=Cc2cc(C(C)(C)C)c(O)c(C(C)(C)C)c2)cc1 [Compound 16, 4-(Tert-butyl)-N′-(3,5-di-tert-butyl-4-hydroxybenzylidene)benzohydrazide]",79 ± 7.53 µM
14,"CC(C)(C)c1ccc(C(=O)NN=Cc2cc(Cl)cc(Cl)c2O)cc1 [Compound 17, N′-(3,5-Dichloro-2-hydroxybenzylidene)-4-tert-butylbenzohydrazide]",27.5 ± 1.65 µM
15,"CC(C)(C)c1ccc(C(=O)NN=Cc2ccc([N+](=O)[O-])cc2)cc1 [Compound 18, N′-(4-Nitrobenzylidene)-4-tert-butylbenzohydrazide]",66.1 ± 1.79 µM
16,"COc1cccc(OC)c1C=NNC(=O)c1ccc(C(C)(C)C)cc1 [Compound 19, 4-(Tert-butyl)-N′-(2,6-dimethoxybenzylidene)benzohydrazide]",67.5 ± 4.16 µM
17,"CC(C)(C)c1ccc(C(=O)N/N=C/c2ccc(O)cc2)cc1 [Compound 20, 4-(t-But)-N′-(4-Hydroxybenzylidene)benzohydrazide]",51.4 ± 11.5 µM
18,"COc1cc(OC)c(C=NNC(=O)c2ccc(C(C)(C)C)cc2)c(OC)c1 [Compound 21, N′-(2,4,6-Trimethoxybenzylidene)-4-tert-butylbenzohydrazide]",71.3 ± 2.47 µM
19,CC(C)(C)c1ccc(C(=O)N/N=C/c2ccc(Cl)c(O)c2Cl)cc1 [Compound 22],38.6 ± 11.5 µM
20,COc1cc(C=NNC(=O)c2ccc(C(C)(C)C)cc2)ccc1O [Compound 23],252 ± 6.82 µM
21,"CC(C)(C)c1ccc(C(=O)N/N=C/c2ccccc2O)cc1 [Compound 24, 4-(t-But)-N′-(2-Hydroxybenzylidene)benzohydrazide]",37.5 ± 12.5 µM
22,"COc1ccc(/C=N/NC(=O)c2ccc(C(C)(C)C)cc2)cc1OC [Compound 25, 4-(t-But)-N′-(3,4-Dimethoxybenzylidene)benzohydrazide]",13.4 ± 0.33 µM
23,"CC(C)(C)c1ccc(C(=O)N/N=C/c2cc(C(C)(C)C)cc(C(C)(C)C)c2O)cc1 [Compound 26, 4-(t-But)-N′-(3,5-Di-tert-butyl-2-hydroxybenzylidene)benzohydrazide]",49.5 ± 12.7 µM

# Source: article PMC9608490, “Design, Synthesis, Crystal Structure, In Vitro and In Silico Evaluation of New N′-Benzylidene-4-tert-butylbenzohydrazide Derivatives as Potent Urease Inhibitors” (Molecules, 2022)
